Data as given in ChEMBL document CHEMBL1201862, “PubChem BioAssay data set” (2004).
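How tested: cells in 96-well plates exposed to compound for 48 hours at five concentrations. GI50 is the concentration that inhibits growth by half.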 The source made the active and inactive calls. Rule as the data show it: active = GI50 up to about 1.1 µM and inactive = higher.

Legend:
Experiment in all cases: NCI anticancer screen, dose series, 48 h
CCRF-CEM = test system: CCRF-CEM
SN12C = test system: SN12C
DU-145 = test system: DU-145
Hs-578T = test system: Hs-578T
OVCAR-5 = test system: OVCAR-5
SW-620 = test system: SW-620
PC-3 = test system: PC-3
SK-OV-3 = test system: SK-OV-3
Malme-3M = test system: Malme-3M
HOP-92 = test system: HOP-92
SNB-19 = test system: SNB-19
MDA-MB-231 = test system: MDA-MB-231
NCI-H460 = test system: NCI-H460
HL-60 = test system: HL-60
NCI/ADR-RES = test system: NCI/ADR-RES
CAKI-1 = test system: CAKI-1
A549 = test system: A549
UACC-62 = test system: UACC-62
HCC 2998 = test system: HCC 2998

Structure (SMILES)	GI50 (CCRF-CEM)	GI50 (SN12C)	GI50 (DU-145)	GI50 (Hs-578T)	GI50 (OVCAR-5)	GI50 (SW-620)	GI50 (PC-3)	GI50 (SK-OV-3)	GI50 (Malme-3M)	GI50 (HOP-92)	GI50 (SNB-19)	GI50 (MDA-MB-231)	GI50 (NCI-H460)	GI50 (HL-60)	GI50 (NCI/ADR-RES)	GI50 (CAKI-1)	GI50 (A549)	GI50 (UACC-62)	GI50 (HCC 2998)
COc1ccc(C(Cc2ccccc2)C2NC(=S)NC2=O)cc1 (configuration not stated)	> 25 µM (inactive)	> 25 µM (inactive)	> 25 µM (inactive)	> 25 µM (inactive)	> 25 µM (inactive)	> 25 µM (inactive)	> 25 µM (inactive)	> 25 µM (inactive)	> 25 µM (inactive)	> 25 µM (inactive)	> 25 µM (inactive)	> 25 µM (inactive)	> 25 µM (inactive)	> 25 µM (inactive)	> 25 µM (inactive)	> 25 µM (inactive)	> 25 µM (inactive)		
CC(C)(C)[Si](C)(C)Oc1ccc(C2CNC(=O)C23CCC(=O)N3Cc2ccccc2)cc1 (configuration not stated)	17.6 µM (inactive)	15 µM (inactive)	16.7 µM (inactive)	7.31 µM (inactive)	17.5 µM (inactive)	15.1 µM (inactive)	15.2 µM (inactive)	15.5 µM (inactive)	18.2 µM (inactive)	17.1 µM (inactive)	15 µM (inactive)		7.14 µM (inactive)	4.62 µM (inactive)	12.8 µM (inactive)	19.7 µM (inactive)	10 µM (inactive)	15.2 µM (inactive)	
COc1cc(C2SCC(=O)N2c2ccc(Cl)cc2)cc(OC)c1OC (configuration not stated)	1.99 µM (inactive)	> 39.5 µM (inactive)		> 100 µM (inactive)	0.252 µM (active)	19 µM (inactive)	46.2 µM (inactive)	> 94.6 µM (inactive)	> 100 µM (inactive)	> 49.1 µM (inactive)	> 100 µM (inactive)	> 100 µM (inactive)	3.7 µM (inactive)	2.46 µM (inactive)	20.4 µM (inactive)	10.4 µM (inactive)	> 100 µM (inactive)	< 0.0205 µM (active)	> 30.2 µM (inactive)
O=C1N[C@@H]2O[C@H](CNC(=O)c3cc(Br)c[nH]3)C[C@]2(O)N1.O=C1N[C@H]2O[C@H](CNC(=O)c3cc(Br)c[nH]3)C[C@@]2(O)N1		> 100 µM (inactive)	> 100 µM (inactive)	> 100 µM (inactive)	> 100 µM (inactive)	> 100 µM (inactive)	> 100 µM (inactive)	> 100 µM (inactive)	> 100 µM (inactive)	> 100 µM (inactive)	> 100 µM (inactive)	> 100 µM (inactive)	> 100 µM (inactive)	> 100 µM (inactive)	> 100 µM (inactive)	> 100 µM (inactive)	> 100 µM (inactive)	> 100 µM (inactive)	
C1=C(c2ccccc2)SC=C(c2ccccc2)S1	57.1 µM (inactive)	29.9 µM (inactive)	> 100 µM (inactive)	44 µM (inactive)	44.4 µM (inactive)	25.9 µM (inactive)	> 100 µM (inactive)	27.5 µM (inactive)	45.5 µM (inactive)	17.1 µM (inactive)	> 100 µM (inactive)	32.2 µM (inactive)	29.5 µM (inactive)	65.9 µM (inactive)	19.9 µM (inactive)	60.4 µM (inactive)	32.1 µM (inactive)	35.9 µM (inactive)	
n1onc2c1NC1Nc3nonc3NC1N2 (configuration not stated)	> 100 µM (inactive)	> 100 µM (inactive)	> 100 µM (inactive)	> 100 µM (inactive)	> 100 µM (inactive)	> 100 µM (inactive)	> 100 µM (inactive)	> 100 µM (inactive)		> 100 µM (inactive)	27.7 µM (inactive)		> 100 µM (inactive)	> 100 µM (inactive)	> 100 µM (inactive)	> 100 µM (inactive)	> 100 µM (inactive)		> 100 µM (inactive)
CCCCC1Cc2cc(OC)ccc2-c2nc3cc(OC)ccc3n21.CCCCC1Cc2cc(OC)ccc2-c2nc3ccc(OC)cc3n21 (configuration not stated)	13.8 µM (inactive)	14.7 µM (inactive)	16.4 µM (inactive)	12.7 µM (inactive)	16.9 µM (inactive)	14.5 µM (inactive)	11.2 µM (inactive)	13.5 µM (inactive)	16 µM (inactive)	2.06 µM (inactive)	9.73 µM (inactive)	13.1 µM (inactive)	15.4 µM (inactive)	13.8 µM (inactive)	13.2 µM (inactive)	15.6 µM (inactive)	14 µM (inactive)	12.9 µM (inactive)	
CCOC(=O)c1ccc(N2C(=S)N(C(=O)c3ccccc3)C(=N/c3ccccc3)/C2=N\c2ccccc2)cc1		> 100 µM (inactive)	92.9 µM (inactive)	58.3 µM (inactive)	> 100 µM (inactive)	> 100 µM (inactive)	59 µM (inactive)	32 µM (inactive)	53.5 µM (inactive)	26.4 µM (inactive)	72.9 µM (inactive)		> 100 µM (inactive)		> 100 µM (inactive)	27.6 µM (inactive)	52.8 µM (inactive)	29.6 µM (inactive)	> 100 µM (inactive)
